From patent publication US20170073305A1, “FATTY ACID AMIDES, COMPOSITIONS AND METHODS OF USE” (Catabasis Pharmaceuticals, Inc., priority 2011, published 2017)

Legend:
NF-κB = NF-κB luciferase reporter assay in RAW 264.7 macrophages; assay type: cell-based; details: Mus musculus, RAW264.7; RAW 264.7 3×NF-κB luciferase reporter cells, 2 hour pretreatment, 200 ng/ml LPS for 3 hours; read-out: NF-kB inhibitory activity IC50
Experimental: RAW 264.7 cells stably expressing a 3×NF-κB response element-drive luciferase reporter were seeded into 96 well plates in sera-free medium (Optimem) 18 hours prior to compound application. Compounds of the invention were prepared by first making 100 mM stock solutions in EtOH. Stock solutions were then diluted 1:100 in low LPS FBS (Gemini BenchMark 100-106), mixed vigorously and allowed to incubate at room temperature for 30 minutes. 1:2 serial dilutions were then made in FBS supplemented with 1% EtOH, mixed vigorously, and again allowed to incubate at room temperature for 30 minutes before adding to RAW 264.7 reporter cells (final concentrations: 10% FBS, 100 uM highest compound dilution, 0.1% EtOH) for a 2 hour pretreatment prior to stimulation with LPS. Cells were then stimulated with 200 ng/ml LPS or vehicle control for 3 hours in the presence of the compounds of the invention. A set of six vehicles was left unstimulated with LPS in order to measure the assay floor. AlamarBlue viability dye (Invitrogen) was added to cells simultaneously with the delivery of LPS (final AlamarBlue concentration of 10%). After the 3 h incubation period with LPS, cell viability was measured by reading fluorescence (excitation 550 nm, emission 595 nm) with a Perkin Elmer Victor V plate reader. Then cell media was aspirated from each well. Luciferase signal was then developed by addition of the Britelite Plus reagent (Perkin Elmer). Luciferase activity was measured with the Perkin Elmer Victor V plate reader. NF-κB activity was expressed as a percent of the vehicle control wells (stimulated with LPS). Compounds were tested at 6 dose point titrations in triplicate to determine IC50 values. Table 1 summarizes the IC50 values for a number of fatty acid amides in this NF-κB luciferase reporter assay.

mice lacking cystinosin = details: 200 or 400 mg/kg orally for 7, 30 or 60 days, greatest effect in liver and kidney after 60 days; cited from earlier work
[1] = system: Cystinotic fibroblasts (cell line GM00008, Coriell Cell Repository); assay: cystinotic fibroblast assay (cystine depletion, LC-MS/MS); assay type: cell-based; details: 50 μM, cells incubated 24 hours, cystine by LC-MS/MS, percentage of control (POC)
Excerpt: Nephropathic cystinosis is an orphan genetic lysosomal storage disorder characterized by a massive accumulation of crystalline cystine within cells. Affected individuals develop a proximal renal tubulopathy and progress, if untreated, to end-stage renal failure. Omran et al (Bioorg. Med. Chem. 2011, p, 3492) described a convenient in vitro system to quickly evaluate compounds that could deplete levels of cystine in cultured fibroblasts. Cystinotic fibroblasts (cell line GM00008, Coriell Cell Repository) were seeded in a 6-well plate and grown in DMEM/15% FBS until confluent. […] Protein quantification was accomplished by dissolving precipitated protein in 0.25 M NaOH and 1 M Tris (pH 7.5), and spectrophotometric measurement using the Bradford method. Compound I-9 was evaluated in this cystinotic fibroblast assay. The level of cystine in this cystinotic cell line was quantitated by LC-MS/MS. […] The level of cystine was expressed as the percentage of control (POC). […] The cystine level was determined as follows: To the 50 μL of supernatant, acetonitrile (400 μL) containing 200 ng/ml Internal standard (deuterated cystine) was added and mixture was vortexed for 1 min followed by centrifugation for 10 minutes. […] The concentration of Cystine was measured by LC-MS/MS. […]

IL-1β = IL-1β gene expression in LPS-stimulated RAW264.7 macrophages; assay type: cell-based; details: RAW264.7, 2 hours pre-incubation, 100 ng/ml LPS 3 hours, relative to vehicle only control, FIG. 1
Experimental: RAW264.7 macrophages were seeded at a density of 100,000 cells/well in a 96-well plate in DMEM supplemented with 10% FBS and Penn/strep. 16 hours later, medium was aspirated and replaced with 90 μL/well of serum-free DMEM. Fatty acid amides were brought up in 100% EtOH to a concentration of 100 mM and then diluted 1:100 in 100% FBS for a stock solution consisting of 1 mM compound and 1% EtOH. These stock solutions were then diluted 1:10 in FBS supplemented with 1% EtOH to generate a 100 μM of the fatty acid amide. 10 μL was then added to the RAW246.7 cells to generate final concentrations 10 μM of the fatty acid amide or 10 μM each DHA and MMF, along with vehicle only control. The compounds were allowed to pre-incubate for 2 hours before stimulation of 100 ng/ml LPS (10 μL of 1 μg/ml LPS was added to each well). Following 3 hours of LPS stimulation, cells were washed once in 1×PBS, aspirated dry, and flash frozen in liquid nitrogen. […] IL-1β transcript levels were then measured using Taqman primer/probe assay sets (Applied Biosystems), normalized to GAPDH using the deltaCt method, and the data expressed relative to vehicle only control. FIG. 1 summarizes the IL-1β gene expression data on compound I-57 (cellular toxicity was assessed using alamar blue as indicator, abbreviated in the figure as AB). […]

Hmox1 = Hmox1 target gene expression in LPS-stimulated RAW264.7 macrophages; assay type: cell-based; details: RAW264.7, 1.6-50 μM, 2 hours pre-incubation, 100 ng/ml LPS 3 hours, relative to vehicle only control, FIG. 2
Experimental: RAW264.7 macrophages were seeded at a density of 100,000 cells/well in a 96-well plate in DMEM supplemented with 10% FBS and Penn/strep. 16 hours later, medium was aspirated and replaced with 90 uL/well of serum-free DMEM. Fatty acid amides were brought up in 100% EtOH to a concentration of 100 mM and then diluted 1:100 in 100% FBS for a 20× stock solution consisting of 1 mM compound and 1% EtOH. The fatty acid amide 20× stock solutions were diluted 1:2 in FBS supplemented with 1% EtOH for a 500 uM 10× stock solution. The 10× stock solutions were then serially diluted 1:2 in FBS supplemented with 1% EtOH and 10 μL of each dilution was added to the RAW246.7 cells to generate final concentrations of 50, 25, 12.5, 6.25, 3.12 and 1.6 μM. The compounds were allowed to pre-incubate for 2 hours before stimulation of 100 ng/ml LPS (10 μL of 1 μg/ml LPS is added to each well). Following 3 hours of LPS stimulation, cells were washed once in 1×PBS, aspirated dry, and flash frozen in liquid nitrogen. […] Transcript levels were then measured using ABI Taqman primer/probe assay kits, normalized to GAPDH using the deltaCt method, and the data expressed relative to vehicle only control. FIG. 2 summarizes the Hmox data on compound I-57 (cellular toxicity was assessed using alamar blue as indicator, abbreviated in the figure as AB). […]

| SMILES | IC50 (NF-κB) | further results |
| --- | --- | --- |
| CC/C=C\C/C=C\C/C=C\C/C=C\C/C=C\C/C=C\CCC(=O)NCCOCCOCCOC [I-52, (4Z,7Z,10Z,13Z,16Z,19Z)-N-(2-(2-(2-methoxyethoxy)ethoxy)ethyl)docosa-4,7,10,13,16,19-hexaenamide] | < 50 µM | – |
| CC/C=C\C/C=C\C/C=C\C/C=C\C/C=C\C/C=C\CCC(=O)O [DHA, all-cis-4,7,10,13,16,19-docosahexaenoic acid, reference compound] | > 200 µM | – |
| NCCS [cysteamine, reference compound] | – | cystine levels of tissues (mice lacking cystinosin): reduce cystine levels of all tissues tested; reduction in the cystine level [1]: 45% |
| CC/C=C\C/C=C\C/C=C\C/C=C\C/C=C\C/C=C\CCC(=O)Nc1nc2c(s1)C[C@H](NCCC)CC2 [I-21, (4Z,7Z,10Z,13Z,16Z,19Z)-N-((R)-6-(propylamino)-4,5,6,7-tetrahydrobenzo[d]thiazol-2-yl)docosa-4,7,10,13,16,19-hexaenamide] | < 200 µM | – |
| CC/C=C\C/C=C\C/C=C\C/C=C\C/C=C\CCCC(=O)NCCOCCOCCOC [I-57, (5Z,8Z,11Z,14Z,17Z)-N-(2-(2-(2-methoxyethoxy)ethoxy)ethyl)icosa-5,8,11,14,17-pentaenamide] | < 50 µM | IL-1β gene expression (IL-1β): decrease; Hmox gene expression (Hmox1): upregulation |
| CC/C=C\C/C=C\C/C=C\C/C=C\C/C=C\C/C=C\CCC(=O)N[C@@H](C)C(=O)N[C@@H]1[C@@H](O)[C@H](O)[C@@H](CO)O[C@H]1O [I-47, (4Z,7Z,10Z,13Z,16Z,19Z)-N-((S)-1-oxo-1-(((2R,3R,4R,5S,6R)-2,4,5-trihydroxy-6-(hydroxymethyl)tetrahydro-2H-pyran-3-yl)amino)propan-2-yl)docosa-4,7,10,13,16,19-hexaenamide] | > 200 µM | – |
| CC/C=C\C/C=C\C/C=C\C/C=C\C/C=C\C/C=C\CCC(=O)N[C@@H](CC(C)C)C(=O)N[C@@H]1[C@@H](O)[C@H](O)[C@@H](CO)O[C@H]1O [I-49, (4Z,7Z,10Z,13Z,16Z,19Z)-N-((S)-4-methyl-1-oxo-1-(((2R,3R,4R,5S,6R)-2,4,5-trihydroxy-6-(hydroxymethyl)tetrahydro-2H-pyran-3-yl)amino)pentan-2-yl)docosa-4,7,10,13,16,19-hexaenamide] | < 50 µM | – |
| CC/C=C\C/C=C\C/C=C\C/C=C\C/C=C\CCCC(=O)NCCSSCCNC(C)=O [I-9, (5Z,8Z,11Z,14Z,17Z)-N-(2-((2-acetamidoethyl)disulfanyl)ethyl)icosa-5,8,11,14,17-pentaenamide] | – | reduction in the cystine level [1]: 68% |
| CC/C=C\C/C=C\C/C=C\C/C=C\C/C=C\C/C=C\CCC(=O)N[C@H](C(=O)N[C@@H]1[C@@H](O)[C@H](O)[C@@H](CO)O[C@H]1O)C(C)C [I-48, (4Z,7Z,10Z,13Z,16Z,19Z)-N-((S)-3-methyl-1-oxo-1-(((2R,3R,4R,5S,6R)-2,4,5-trihydroxy-6-(hydroxymethyl)tetrahydro-2H-pyran-3-yl)amino)butan-2-yl)docosa-4,7,10,13,16,19-hexaenamide] | < 50 µM | – |
| CC/C=C\C/C=C\C/C=C\C/C=C\C/C=C\CCCC(=O)O [EPA, all-cis-5,8,11,14,17-eicosapentaenoic acid, reference compound] | > 200 µM | – |
